Experimental data published in patent US10385097B2, “Ether compounds for treatment of medical disorders” (Achillion Pharmaceuticals, Inc., priority 2015, dated 2019).

molecular target: T1, Human Factor D (Homo sapiens, UniProt P00746); experiment: Human Factor D Assay; assay type: biochemical; details: not given
T1 construct: purified from human serum; purchased Complement Technology, Inc; host or cells: human serum (natural protein, not recombinant)
Protocol: Example 8. Human Factor D Assay
Human Factor D (purified from human serum, Complement Technology, Inc.) at 80 nM final concentration is incubated with test compound at various concentrations for 5 minutes at room temperature in 50 mM Tris, 1M NaCl, pH 7.5. A synthetic substrate Z-L-Lys-SBzl and DTNB (Ellman's reagent) are added to final concentrations of 100 μM each. Absorbance at 405 nm (A405) is recorded at 30 second intervals for 30 minutes using a microplate spectrophotometer. IC50 values are calculated by nonlinear regression of complement Factor D reaction rates as a function of test compound concentration.

T1 sequence (P00746 26-253): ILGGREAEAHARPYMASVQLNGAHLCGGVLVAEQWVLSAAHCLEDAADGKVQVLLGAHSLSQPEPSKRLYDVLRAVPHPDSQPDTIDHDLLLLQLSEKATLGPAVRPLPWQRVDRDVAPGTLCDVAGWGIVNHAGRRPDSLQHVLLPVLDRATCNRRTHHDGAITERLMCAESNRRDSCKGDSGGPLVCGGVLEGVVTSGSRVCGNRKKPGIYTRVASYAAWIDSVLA

Compound	IC50 [nM]
CC(=O)c1cn(CC(=O)N2C[C@H](F)C[C@H]2C(=O)Nc2cccc(-c3ccccc3Cl)c2F)c2ccc(Oc3cnc(Cl)nc3)cc12 [Compound 43, (2S,4R)-1-(2-(3-acetyl-5-(2-chloropyrimidin-5-yloxy)-1H-indol-1-yl)acetyl)-N-(2′-chloro-2-fluorobiphenyl-3-yl)-4-fluoropyrrolidine-2-carboxamide]	< 1000

same assay, conditions: Table 1; Human Factor D 80 nM, substrate Z-L-Lys-SBzl; read-out: IC50

Compound	IC50 [nM]
CC(=O)c1cn(CC(=O)N2C[C@H](F)C[C@H]2C(=O)Nc2cccc(-c3ccccc3Cl)c2F)c2ccc(Oc3ncc(F)cn3)cc12 [Compound 37, (2S,4R)-1-(2-(3-acetyl-5-(5-fluoropyrimidin-2-yloxy)-1H-indol-1-yl)acetyl)-N-(2′-chloro-2-fluorobiphenyl-3-yl)-4-fluoropyrrolidine-2-carboxamide]	< 1000
CC(=O)c1cn(CC(=O)N2C[C@H](F)C[C@H]2C(=O)Nc2cccc(-c3ccccc3Cl)c2F)c2ccc(Oc3ncccn3)cc12 [Compound 38, (2S,4R)-1-(2-(3-acetyl-5-(pyrimidin-2-yloxy)-1H-indol-1-yl)acetyl)-N-(2′-chloro-2-fluorobiphenyl-3-yl)-4-fluoropyrrolidine-2-carboxamide]	< 1000
CC(=O)c1cn(CC(=O)N2C[C@H](F)C[C@H]2C(=O)Nc2cccc(Br)n2)c2ccc(Oc3ncccn3)cc12 [Compound 39, (2S,4R)-1-(2-(3-acetyl-5-(pyrimidin-2-yloxy)-1H-indol-1-yl)acetyl)-N-(6-bromopyridin-2-yl)-4-fluoropyrrolidine-2-carboxamide]	< 1000
CC(=O)c1cn(CC(=O)N2C[C@H](F)C[C@H]2C(=O)Nc2cccc(-c3ccccc3Cl)c2F)c2ccc(Oc3ncc(C)cn3)cc12 [Compound 40, (2S,4R)-1-(2-(3-acetyl-5-(5-methylpyrimidin-2-yloxy)-1H-indol-1-yl)acetyl)-N-(2′-chloro-2-fluorobiphenyl-3-yl)-4-fluoropyrrolidine-2-carboxamide]	< 1000
CC(=O)c1cn(CC(=O)N2C[C@H](F)C[C@H]2C(=O)Nc2cccc(Br)n2)c2ccc(Oc3ncc(C)cn3)cc12 [Compound 41, (2S,4R)-1-(2-(3-acetyl-5-(5-methylpyrimidin-2-yloxy)-1H-indol-1-yl)acetyl)-N-(6-bromopyridin-2-yl)-4-fluoropyrrolidine-2-carboxamide]	< 1000
CC(=O)c1cn(CC(=O)N2C[C@H](F)C[C@H]2C(=O)Nc2cccc(-c3ccccc3Cl)c2F)c2ccc(Oc3ncc(C(F)(F)F)cn3)cc12 [Compound 42, (2S,4R)-1-(2-(3-acetyl-5-(5-(trifluoromethyl)pyrimidin-2-yloxy)-1H-indol-1-yl)acetyl)-N-(2′-chloro-2-fluorobiphenyl-3-yl)-4-fluoropyrrolidine-2-carboxamide]	< 1000

same assay, conditions: Table 2; Human Factor D 80 nM, substrate Z-L-Lys-SBzl; read-out: IC50

Compound	IC50 [nM]
CC(=O)c1cn(CC(=O)N2C[C@H](F)C[C@H]2C(=O)Nc2cccc(-c3ccccc3Cl)c2F)c2ccc(O[C@@H]3CO[C@H]4[C@@H]3OC[C@H]4O)cc12 [Compound 44]	< 1000
CC(=O)c1cn(CC(=O)N2C[C@H](F)C[C@H]2C(=O)Nc2cccc(Br)n2)c2ccc(O[C@@H]3CO[C@H]4[C@@H]3OC[C@H]4O)cc12 [Compound 45, (2S,4R)-1-(2-(3-acetyl-5-((3R,3aR,6R,6aR)-6-hydroxyhexahydrofuro[3,2-b]furan-3-yloxy)-1H-indol-1-yl)acetyl)-N-(6-bromopyridin-2-yl)-4-fluoropyrrolidine-2-carboxamide]	< 1000
CO[C@@H]1CO[C@H]2[C@@H]1OC[C@H]2Oc1ccc2c(c1)c(C(C)=O)cn2CC(=O)N1C[C@H](F)C[C@H]1C(=O)Nc1cccc(-c2ccccc2Cl)c1F [Compound 46, (2S,4R)-1-(2-(3-acetyl-5-((3R,3aR,6R,6aR)-6-methoxyhexahydrofuro[3,2-b]furan-3-yloxy)-1H-indol-1-yl)acetyl)-N-(2′-chloro-2-fluorobiphenyl-3-yl)-4-fluoropyrrolidine-2-carboxamide]	< 1000
CO[C@@H]1CO[C@H]2[C@@H]1OC[C@H]2Oc1ccc2c(c1)c(C(C)=O)cn2CC(=O)N1C[C@H](F)C[C@H]1C(=O)Nc1cccc(Br)n1 [Compound 47, (2S,4R)-1-(2-(3-acetyl-5-((3R,3aR,6R,6aR)-6-methoxyhexahydrofuro[3,2-b]furan-3-yloxy)-1H-indol-1-yl)acetyl)-N-(6-bromopyridin-2-yl)-4-fluoropyrrolidine-2-carboxamide]	< 1000

same assay, conditions: Table 3; Human Factor D 80 nM, substrate Z-L-Lys-SBzl; read-out: (IC50 (Stars))

Compound	IC50 [nM]
CC(=O)c1cn(CC(=O)N2C[C@H](F)C[C@H]2C(=O)NCc2ccccc2)c2ccc(OCS(=O)(=O)NC(C)(C)C)cc12 [Compound 129, (2S,4R)-1-(2-(3-Acetyl-5-((N-(tert-butyl)sulfamoyl)methoxy)-1H-indol-1-yl)acetyl)-N-benzyl-4-fluoropyrrolidine-2-carboxamide]	< 1000
CC(=O)c1cn(CC(=O)N2C[C@H](F)C[C@H]2C(=O)NCc2ccccc2)c2ccc(OCS(N)(=O)=O)cc12 [Compound 130, (2S,4R)-1-(2-(3-Acetyl-5-(sulfamoylmethoxy)-1H-indol-1-yl)acetyl)-N-benzyl-4-fluoropyrrolidine-2-carboxamide]	< 1000
CC(=O)c1cn(CC(=O)N2C[C@H](F)C[C@H]2C(=O)NCCc2ccccc2)c2ccc(OCS(=O)(=O)NC(C)(C)C)cc12 [Compound 132, (2S,4R)-1-(2-(3-Acetyl-5-((N-(tert-butyl)sulfamoyl)methoxy)-1H-indol-1-yl)acetyl)-4-fluoro-N-phenethylpyrrolidine-2-carboxamide]	< 1000
CC(=O)c1cn(CC(=O)N2C[C@H](F)C[C@H]2C(=O)NCCc2ccccc2)c2ccc(OCS(N)(=O)=O)cc12 [Compound 133, (2S,4R)-1-(2-(3-Acetyl-5-(sulfamoylmethoxy)-1H-indol-1-yl)acetyl)-4-fluoro-N-phenethylpyrrolidine-2-carboxamide]	1000 to 10000
CC(=O)c1cn(CC(=O)N2C[C@H](F)C[C@H]2C(=O)NCCCc2ccccc2)c2ccc(OCS(=O)(=O)NC(C)(C)C)cc12 [Compound 135, (2S,4R)-1-(2-(3-Acetyl-5-((N-(tert-butyl)sulfamoyl)methoxy)-1H-indol-1-yl)acetyl)-4-fluoro-N-(3-phenylpropyl)pyrrolidine-2-carboxamide]	< 1000
CC(=O)c1cn(CC(=O)N2C[C@H](F)C[C@H]2C(=O)NCCCc2ccccc2)c2ccc(OCS(N)(=O)=O)cc12 [Compound 136, (2S,4R)-1-(2-(3-Acetyl-5-(sulfamoylmethoxy)-1H-indol-1-yl)acetyl)-4-fluoro-N-(3-phenylpropyl)pyrrolidine-2-carboxamide]	< 1000
CC(=O)c1cn(CC(=O)N2C[C@H](F)C[C@H]2C(=O)NCCCCc2ccccc2)c2ccc(OCS(=O)(=O)NC(C)(C)C)cc12 [Compound 138, (2S,4R)-1-(2-(3-Acetyl-5-((N-(tert-butyl)sulfamoyl)methoxy)-1H-indol-1-yl)acetyl)-4-fluoro-N-(4-phenylbutyl)pyrrolidine-2-carboxamide]	< 1000
CC(=O)c1cn(CC(=O)N2C[C@H](F)C[C@H]2C(=O)NCCCCc2ccccc2)c2ccc(OCS(N)(=O)=O)cc12 [Compound 139, (2S,4R)-1-(2-(3-Acetyl-5-(sulfamoylmethoxy)-1H-indol-1-yl)acetyl)-4-fluoro-N-(4-phenylbutyl)pyrrolidine-2-carboxamide]	1000 to 10000
CC(=O)c1cn(CC(=O)N2C[C@H](F)C[C@H]2C(=O)NCc2cccc(Cl)c2F)c2ccc(OCS(=O)(=O)NC(C)(C)C)cc12 [Compound 140, (2S,4R)-1-(2-(3-Acetyl-5-((N-(tert-butyl)sulfamoyl)methoxy)-1H-indol-1-yl)acetyl)-N-(3-chloro-2-fluorobenzyl)-4-fluoropyrrolidine-2-carboxamide]	< 1000
CC(=O)c1cn(CC(=O)N2C[C@H](F)C[C@H]2C(=O)NCc2cccc(Cl)c2F)c2ccc(OCS(N)(=O)=O)cc12 [Compound 141, (2S,4R)-1-(2-(3-Acetyl-5-(sulfamoylmethoxy)-1H-indol-1-yl)acetyl)-N-(3-chloro-2-fluorobenzyl)-4-fluoropyrrolidine-2-carboxamide]	< 1000
CCOP(=O)(COc1ccc2c(c1)c(C(C)=O)cn2CC(=O)N1C[C@H](F)C[C@H]1C(=O)NCc1ccccc1)OCC [Compound 144, Diethyl (((3-acetyl-1-(2-((2S,4R)-2-(benzylcarbamoyl)-4-fluoropyrrolidin-1-yl)-2-oxoethyl)-1H-indol-5-yl)oxy)methyl)phosphonate]	< 1000
CC(=O)c1cn(CC(=O)N2C[C@H](F)C[C@H]2C(=O)NCc2ccccc2)c2ccc(OCP(=O)(O)O)cc12 [Compound 145, (((3-Acetyl-1-(2-((2S,4R)-2-(benzylcarbamoyl)-4-fluoropyrrolidin-1-yl)-2-oxoethyl)-1H-indol-5-yl)oxy)methyl)phosphonic acid]	1000 to 10000
CCOP(=O)(COc1ccc2c(c1)c(C(C)=O)cn2CC(=O)N1C[C@H](F)C[C@H]1C(=O)NCCc1ccccc1)OCC [Compound 146, Diethyl (((3-acetyl-1-(2-((2S,4R)-4-fluoro-2-(phenethylcarbamoyl)pyrrolidin-1-yl)-2-oxoethyl)-1H-indol-5-yl)oxy)methyl)phosphonate]	< 1000
CC(=O)c1cn(CC(=O)N2C[C@H](F)C[C@H]2C(=O)NCCc2ccccc2)c2ccc(OCP(=O)(O)O)cc12 [Compound 147, (((3-Acetyl-1-(2-((2S,4R)-4-fluoro-2-(phenethylcarbamoyl)pyrrolidin-1-yl)-2-oxoethyl)-1H-indol-5-yl)oxy)methyl)phosphonic acid]	> 10000
